# Results taken from PubChem BioAssay AID248 (DTP/NCI, 2004).
# Several values for one entry are separate records, joined by “and”; a condition that tells them apart may be missing. Equal entries are not always repeated. Toxic doses and inconclusive results are not listed.
# System: L1210 leukemia ip in BDF1 mice, survival T/C
# Assay: NCI In Vivo Anticancer Drug Screen. Data for tumor model L1210 Leukemia (intraperitoneal) in B6D2F1 (BDF1) mice
# Conditions: higher = longer survival
# How it was run: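 Ratio derived from survival: compound-dosed mice over vehicle-dosed mice, all bearing a transplantable tumor.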
# [1] = endpoint: mean survival time, dose: 100.0 mg/kg/injection, schedule: Q04DX003 (ip), vehicle: saline with Tween-80
# [2] = endpoint: mean survival time, dose: 50.0 mg/kg/injection, schedule: Q01DX009 (ip), vehicle: Klucel (hydroxypropylcellulose) (HPC)
# [3] = endpoint: mean survival time, dose: 100.0 mg/kg/injection, schedule: Q01DX001 (ip), vehicle: Klucel (hydroxypropylcellulose) (HPC)
# [4] = endpoint: mean survival time, dose: 200.0 mg/kg/injection, schedule: Q01DX001 (ip), vehicle: Klucel (hydroxypropylcellulose) (HPC)
# [5] = endpoint: mean survival time, dose: 100.0 mg/kg/injection, schedule: Q04DX003 (ip), vehicle: saline
# [6] = endpoint: mean survival time, dose: 100.0 mg/kg/injection, schedule: Q01DX001 (ip), vehicle: saline
# [7] = endpoint: mean survival time, dose: 200.0 mg/kg/injection, schedule: Q01DX001 (ip), vehicle: saline
# [8] = endpoint: mean survival time, dose: 400.0 mg/kg/injection, schedule: Q01DX001 (ip), vehicle: saline
# [9] = endpoint: mean survival time, dose: 200.0 mg/kg/injection, schedule: Q04DX003 (ip), vehicle: saline
# [10] = endpoint: mean survival time, dose: 400.0 mg/kg/injection, schedule: Q04DX003 (ip), vehicle: saline
compound,measurement,setting,value
CC(C(O)c1ccc(F)cc1)C(O)(C(F)(F)F)C(F)(F)F (configuration not stated),T/C,[1],97 % of control
same,T/C,"endpoint: mean survival time, dose: 200.0 mg/kg/injection, schedule: Q04DX003 (ip), vehicle: saline with Tween-80",98 % of control
same,T/C,"endpoint: mean survival time, dose: 400.0 mg/kg/injection, schedule: Q04DX003 (ip), vehicle: saline with Tween-80",86 % of control
CCC[CH2][Sn]([CH2]CCC)([CH2]CCC)[CH2]C(C)(C)c1ccccc1,T/C,"endpoint: mean survival time, dose: 75.0 mg/kg/injection, schedule: Q01DX001 (ip), vehicle: other",91 % of control
Cc1ccc(C2NC(=O)c3ccccc3N2)s1 (configuration not stated),T/C,[2],107 % of control and 92 % of control
same,T/C,"endpoint: mean survival time, dose: 100.0 mg/kg/injection, schedule: Q01DX009 (ip), vehicle: Klucel (hydroxypropylcellulose) (HPC)",98 % of control and 105 % of control
same,T/C,"endpoint: mean survival time, dose: 150.0 mg/kg/injection, schedule: Q01DX009 (ip), vehicle: Klucel (hydroxypropylcellulose) (HPC)",102 % of control
same,T/C,"endpoint: mean survival time, dose: 200.0 mg/kg/injection, schedule: Q01DX009 (ip), vehicle: Klucel (hydroxypropylcellulose) (HPC)",108 % of control
same,T/C,"endpoint: mean survival time, dose: 400.0 mg/kg/injection, schedule: Q01DX009 (ip), vehicle: Klucel (hydroxypropylcellulose) (HPC)",87 % of control
C1=C(c2ccccc2)N=C(c2ccccc2)C2C(c3ccccc3)N2C1c1ccccc1 (configuration not stated),T/C,[3],87 % of control
same,T/C,[4],91 % of control
COCCN=C(NCCOC)c1ccc(Nc2ncnc3nc[nH]c23)cc1,T/C,"endpoint: mean survival time, dose: 50.0 mg/kg/injection, schedule: Q04DX003 (ip), vehicle: saline",102 % of control
same,T/C,[5],95 % of control
c1ccc2cc(C3OCCCO3)ccc2c1,T/C,[3],94 % of control
same,T/C,[4],100 % of control
same,T/C,"endpoint: mean survival time, dose: 400.0 mg/kg/injection, schedule: Q01DX001 (ip), vehicle: Klucel (hydroxypropylcellulose) (HPC)",100 % of control
CC1C[N+](C)(C)CC(C)C1=O (configuration not stated),T/C,"endpoint: mean survival time, dose: 12.5 mg/kg/injection, schedule: Q04DX002 (ip), vehicle: saline with Tween-80",96 % of control
same,T/C,"endpoint: mean survival time, dose: 25.0 mg/kg/injection, schedule: Q04DX002 (ip), vehicle: saline with Tween-80",107 % of control
same,T/C,"endpoint: mean survival time, dose: 50.0 mg/kg/injection, schedule: Q04DX002 (ip), vehicle: saline with Tween-80",93 % of control
C=C1C(C)=NN=C2C=CN(C(=O)CI)N12,T/C,[6],109 % of control
same,T/C,[7],106 % of control
same,T/C,[8],106 % of control
CCNCCNc1ccc(CO)c2sc3cc(Cl)ccc3c(=O)c12,T/C,"endpoint: mean survival time, dose: 25.0 mg/kg/injection, schedule: Q01DX009 (ip), vehicle: Klucel (hydroxypropylcellulose) (HPC)",99 % of control
same,T/C,[2],100 % of control
Nc1cc2ccncc2c2sc3ccccc3c12,T/C,"endpoint: mean survival time, dose: 100.0 mg/kg/injection, schedule: Q01DX009 (ip), vehicle: saline",86 % of control
same,T/C,[5],90 % of control
same,T/C,"endpoint: mean survival time, dose: 200.0 mg/kg/injection, schedule: Q01DX009 (ip), vehicle: saline",91 % of control
same,T/C,[9],90 % of control
same,T/C,"endpoint: mean survival time, dose: 400.0 mg/kg/injection, schedule: Q01DX009 (ip), vehicle: saline",93 % of control
same,T/C,[10],90 % of control
COC(COC(N)=O)C1=C(N2CC2)C(=O)C(C)=C(N2CC2)C1=O (configuration not stated),T/C,"endpoint: mean survival time, dose: 0.03 mg/kg/injection, schedule: Q01DX Z (ip), vehicle: saline",107 % of control
same,T/C,"endpoint: mean survival time, dose: 0.06 mg/kg/injection, schedule: Q01DX Z (ip), vehicle: saline",115 % of control
same,T/C,"endpoint: mean survival time, dose: 0.12 mg/kg/injection, schedule: Q01DX009 (ip), vehicle: Klucel (hydroxypropylcellulose) (HPC)",158 % of control
same,T/C,"endpoint: mean survival time, dose: 0.12 mg/kg/injection, schedule: Q01DX Z (ip), vehicle: saline",115 % of control
same,T/C,"endpoint: mean survival time, dose: 0.25 mg/kg/injection, schedule: Q01DX009 (ip), vehicle: Klucel (hydroxypropylcellulose) (HPC)",113 % of control
same,T/C,"endpoint: mean survival time, dose: 0.25 mg/kg/injection, schedule: Q01DX Z (ip), vehicle: saline",159 % of control
same,T/C,"endpoint: mean survival time, dose: 0.5 mg/kg/injection, schedule: Q01DX009 (ip), vehicle: saline",207 % of control
same,T/C,"endpoint: mean survival time, dose: 0.5 mg/kg/injection, schedule: Q01DX Z (ip), vehicle: saline",157 % of control
same,T/C,"endpoint: mean survival time, dose: 0.5 mg/kg/injection, schedule: Q04DX003 (ip), vehicle: Klucel (hydroxypropylcellulose) (HPC)",194 % of control
same,T/C,"endpoint: mean survival time, dose: 0.5 mg/kg/injection, schedule: Q04DX003 (ip), vehicle: saline",172 % of control
same,T/C,"endpoint: mean survival time, dose: 0.5 mg/kg/injection, schedule: Q08DX002 (ip), vehicle: saline",160 % of control
same,T/C,"endpoint: mean survival time, dose: 1.0 mg/kg/injection, schedule: Q01DX001 (ip), vehicle: saline with Tween-80",166 % of control
same,T/C,"endpoint: mean survival time, dose: 1.0 mg/kg/injection, schedule: Q01DX001 (ip), vehicle: saline",171 % of control
same,T/C,"endpoint: mean survival time, dose: 1.0 mg/kg/injection, schedule: Q01DX009 (ip), vehicle: saline",201 % of control
same,T/C,"endpoint: mean survival time, dose: 1.0 mg/kg/injection, schedule: Q01DX Z (ip), vehicle: saline",90 % of control
same,T/C,"endpoint: mean survival time, dose: 1.0 mg/kg/injection, schedule: Q04DX003 (ip), vehicle: saline",188 % of control
same,T/C,"endpoint: mean survival time, dose: 1.0 mg/kg/injection, schedule: Q08DX002 (ip), vehicle: saline",233 % of control
same,T/C,"endpoint: mean survival time, dose: 2.0 mg/kg/injection, schedule: Q01DX001 (ip), vehicle: saline with Tween-80",288 % of control
same,T/C,"endpoint: mean survival time, dose: 2.0 mg/kg/injection, schedule: Q01DX001 (ip), vehicle: saline",360 % of control
same,T/C,"endpoint: mean survival time, dose: 2.0 mg/kg/injection, schedule: Q01DX009 (ip), vehicle: Klucel (hydroxypropylcellulose) (HPC)",92 % of control
same,T/C,"endpoint: mean survival time, dose: 2.0 mg/kg/injection, schedule: Q04DX003 (ip), vehicle: Klucel (hydroxypropylcellulose) (HPC)",98 % of control
same,T/C,"endpoint: mean survival time, dose: 2.0 mg/kg/injection, schedule: Q04DX003 (ip), vehicle: saline",105 % of control
same,T/C,"endpoint: mean survival time, dose: 2.0 mg/kg/injection, schedule: Q08DX002 (ip), vehicle: saline",159 % of control
same,T/C,"endpoint: mean survival time, dose: 4.0 mg/kg/injection, schedule: Q01DX001 (ip), vehicle: saline with Tween-80",90 % of control
same,T/C,"endpoint: median survival time, dose: 0.5 mg/kg/injection, schedule: Q01DX001 (ip), vehicle: saline",100 % of control
same,T/C,"endpoint: median survival time, dose: 1.0 mg/kg/injection, schedule: Q01DX001 (ip), vehicle: saline",109 % of control
same,T/C,"endpoint: median survival time, dose: 2.0 mg/kg/injection, schedule: Q01DX001 (ip), vehicle: saline",114 % of control
O=[N+]([O-])c1ccc(O)c(/C=N/Nc2nnc(N/N=C/c3cc([N+](=O)[O-])ccc3O)c3ccccc23)c1,T/C,"endpoint: mean survival time, dose: 50.0 mg/kg/injection, schedule: Q01DX001 (ip), vehicle: carboxymethylcellulose (CMC)",95 % of control
same,T/C,"endpoint: mean survival time, dose: 100.0 mg/kg/injection, schedule: Q01DX001 (ip), vehicle: carboxymethylcellulose (CMC)",93 % of control
same,T/C,"endpoint: mean survival time, dose: 200.0 mg/kg/injection, schedule: Q01DX001 (ip), vehicle: carboxymethylcellulose (CMC)",95 % of control
same,T/C,"endpoint: mean survival time, dose: 400.0 mg/kg/injection, schedule: Q01DX001 (ip), vehicle: carboxymethylcellulose (CMC)",93 % of control
c1ccc(CC(Cc2ccccc2)c2nc3ccccc3s2)cc1,T/C,"endpoint: mean survival time, dose: 75.0 mg/kg/injection, schedule: Q01DX009 (ip), vehicle: saline",98 % of control
same,T/C,[5],98 % of control
same,T/C,"endpoint: mean survival time, dose: 150.0 mg/kg/injection, schedule: Q01DX009 (ip), vehicle: saline",98 % of control
same,T/C,[9],92 % of control
same,T/C,"endpoint: mean survival time, dose: 300.0 mg/kg/injection, schedule: Q01DX009 (ip), vehicle: saline",95 % of control
same,T/C,[10],92 % of control
Cc1nc(N=C(N)N)nc2ccc(Cl)cc12,T/C,"endpoint: mean survival time, dose: 18.8 mg/kg/injection, schedule: Q04DX003 (ip), vehicle: saline",96 % of control
same,T/C,"endpoint: mean survival time, dose: 37.5 mg/kg/injection, schedule: Q04DX003 (ip), vehicle: saline",105 % of control
same,T/C,"endpoint: mean survival time, dose: 75.0 mg/kg/injection, schedule: Q01DX001 (ip), vehicle: saline",101 % of control
same,T/C,"endpoint: mean survival time, dose: 75.0 mg/kg/injection, schedule: Q04DX003 (ip), vehicle: saline",100 % of control
COC(=O)c1ccc(CBr)cc1,T/C,"endpoint: mean survival time, dose: 25.0 mg/kg/injection, schedule: Q01DX009 (ip), vehicle: saline with Tween-80",97 % of control
same,T/C,"endpoint: mean survival time, dose: 50.0 mg/kg/injection, schedule: Q01DX009 (ip), vehicle: saline with Tween-80",90 % of control
same,T/C,"endpoint: mean survival time, dose: 50.0 mg/kg/injection, schedule: Q04DX003 (ip), vehicle: saline with Tween-80",97 % of control
same,T/C,"endpoint: mean survival time, dose: 100.0 mg/kg/injection, schedule: Q01DX009 (ip), vehicle: saline with Tween-80",98 % of control
same,T/C,[1],96 % of control
Cc1cc(C)c(NC(C)C)c(C)c1N,T/C,"endpoint: mean survival time, dose: 50.0 mg/kg/injection, schedule: Q04DX002 (ip), vehicle: Klucel (hydroxypropylcellulose) (HPC)",92 % of control
same,T/C,[6],104 % of control
same,T/C,"endpoint: mean survival time, dose: 100.0 mg/kg/injection, schedule: Q04DX002 (ip), vehicle: Klucel (hydroxypropylcellulose) (HPC)",92 % of control
same,T/C,[7],92 % of control
same,T/C,"endpoint: mean survival time, dose: 200.0 mg/kg/injection, schedule: Q04DX002 (ip), vehicle: Klucel (hydroxypropylcellulose) (HPC)",95 % of control
same,T/C,[8],93 % of control
